Some test systems named below: SF-268 CNS; LOX IMVI melanoma; IGROV1 ovarian; SK-MEL-5 melanoma; SK-MEL-2 melanoma; SF-539 CNS; MALME-3M melanoma; KM12 colon.
Test in all cases: inhibition of tumour cell growth, NCI panel, 48 h

“And” between values parts separate entries of the source, which are not always exact repeats. Equal values may be shown once.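 Protocol summary: plate cells (96-well), add compound at 5 concentrations, incubate 48 h, interpolate endpoints linearly. Here, GI50 denotes the concentration required for 50% inhibition of growth. TGI: concentration producing complete growth inhibition.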 A value given as a limit tells only on which side of the number the result lay.

Turning to `Cc1cc(N(CCC#N)CCC#N)ccc1N=Nc1ccccc1[N+](=O)[O-]`, the TGI with SF-268 CNS, in the experiment on LOX IMVI melanoma, in the experiment on IGROV1 ovarian, with SK-MEL-5 melanoma, in the experiment on SK-MEL-2 melanoma and in the experiment with SF-539 CNS was > 100 µM in each case. In addition, the TGI with MALME-3M melanoma and in the experiment on KM12 colon was > 100 µM in each case.

As for `CC1=CCP(C(F)(F)F)P(C(F)(F)F)C1` (stereo not given), the TGI in the experiment with SF-268 CNS, in the experiment with LOX IMVI melanoma, in the experiment on IGROV1 ovarian, in the experiment on SK-MEL-5 melanoma, in the experiment with SF-539 CNS and in the experiment on MALME-3M melanoma was > 100 µM each time. For the same molecule, the TGI in the experiment on KM12 colon is > 100 µM.

With `C=CC[P@@]1(=O)O[C@H](c2ccccc2)C(C)N1C(C)C` (stereo not given in full), the TGI with SF-268 CNS, in the experiment on LOX IMVI melanoma, with IGROV1 ovarian, in the experiment with SK-MEL-5 melanoma, in the experiment with SF-539 CNS and with MALME-3M melanoma was > 100 µM in each case. In addition, the TGI with KM12 colon was > 100 µM.

As for `COC(=O)C1Cc2c(n(C)c3ccccc23)C(c2ccccc2)N1` (stereo not given), the TGI in the experiment with SF-268 CNS is > 100 µM; in the experiment with LOX IMVI melanoma, > 100 µM; with IGROV1 ovarian it was > 100 µM; in the experiment on SK-MEL-5 melanoma, 93 µM; in the experiment with SK-MEL-2 melanoma, > 100 µM; with MALME-3M melanoma, > 100 µM. In the experiment with KM12 colon, the TGI is > 100 µM.

For the molecule `CC(C)(C)c1ccc(Oc2ccc(C#N)c(C#N)c2)c(C(C)(C)C)c1`, the TGI in the experiment on SF-268 CNS was > 100 µM; in the experiment on LOX IMVI melanoma it was > 54.6 µM; in the experiment on IGROV1 ovarian, > 100 µM; in the experiment with SK-MEL-5 melanoma, > 100 µM; in the experiment on SK-MEL-2 melanoma, 97.8 µM; in the experiment with SF-539 CNS, > 100 µM. Moreover, the TGI with MALME-3M melanoma and in the experiment on KM12 colon was > 100 µM in each case.

Regarding `O=C(c1ccccc1)c1ccc2cccc(O)c2n1`, the TGI was > 100 µM in the experiment on SF-268 CNS; 28 µM in the experiment with LOX IMVI melanoma; > 100 µM with IGROV1 ovarian; 75.8 µM with SK-MEL-5 melanoma; > 100 µM in the experiment with SK-MEL-2 melanoma; > 100 µM in the experiment with SF-539 CNS. Moreover, the TGI in the experiment with MALME-3M melanoma and with KM12 colon was > 100 µM each time.

As for `COc1c2c(c(OC)c3c(=O)cc(C/C(=N/NC(=O)C[n+]4ccccc4)C(=O)Nc4cc(C)ccc4C)oc13)OCO2`, the TGI in the experiment with SF-268 CNS, in the experiment with LOX IMVI melanoma, with IGROV1 ovarian, in the experiment on SK-MEL-5 melanoma, with SK-MEL-2 melanoma and with SF-539 CNS was > 100 µM each time. Moreover, the TGI in the experiment on MALME-3M melanoma and with KM12 colon was > 100 µM in each case.

For the molecule `O=C1C2c3[nH]c4ccccc4c3C3CCSCC3C2C(=O)N1c1ccccc1` (stereo not given), the TGI in the experiment on SF-268 CNS, in the experiment on LOX IMVI melanoma, in the experiment on IGROV1 ovarian, with SK-MEL-5 melanoma, in the experiment with SK-MEL-2 melanoma and with SF-539 CNS was > 100 µM in each case. In addition, the TGI with MALME-3M melanoma and in the experiment on KM12 colon was > 100 µM throughout.

For the molecule `Cc1ccc(C)c(NC(=O)CC2C(=O)Nc3ccccc3S2(=O)=O)c1` (stereo not given), the TGI with SF-268 CNS was > 100 µM; with LOX IMVI melanoma, > 100 µM; in the experiment on IGROV1 ovarian, > 100 µM; with SK-MEL-5 melanoma it was > 100 µM; in the experiment with SK-MEL-2 melanoma, > 100 µM; with SF-539 CNS it was 82.5 µM. In the experiment with MALME-3M melanoma, this molecule returned a TGI of 96.2 µM.

Consider `COCC1N=C(c2ccc(OC)c(OCc3ccccc3)c2OC)O[C@H]1c1ccccc1` (stereo not given in full), for which the TGI was > 100 µM in the experiment with SF-268 CNS; 29.6 µM with LOX IMVI melanoma; > 100 µM in the experiment on IGROV1 ovarian; 25.7 µM in the experiment on SK-MEL-5 melanoma; 53.3 µM in the experiment on SK-MEL-2 melanoma; 35.8 µM in the experiment with SF-539 CNS. This molecule also yielded a TGI in the experiment with KM12 colon of 96.2 µM.

Consider `N.N.NCCCCN.O=C([O-])CC(=O)[O-].O=C([O-])CC(=O)[O-].[Pt+4].[Pt+4]`, for which the GI50 was > 100 µM in the experiment on SF-268 CNS; 78.3 µM in the experiment with LOX IMVI melanoma; > 100 µM in the experiment on IGROV1 ovarian; > 100 µM in the experiment on SK-MEL-5 melanoma; > 100 µM in the experiment with SK-MEL-2 melanoma; 76.4 µM with SF-539 CNS. The GI50 in the experiment on MALME-3M melanoma and in the experiment on KM12 colon was > 100 µM in each case. The TGI with SF-268 CNS, with LOX IMVI melanoma, in the experiment with IGROV1 ovarian, with SK-MEL-5 melanoma, with SK-MEL-2 melanoma and in the experiment on SF-539 CNS was > 100 µM in each case. Moreover, the TGI in the experiment on MALME-3M melanoma and in the experiment on KM12 colon was > 100 µM each time.

Turning to `N#C[C@]12CC3(CC[C@H]1CC1(C2)OCCO1)OCCO3`, the TGI in the experiment with SF-268 CNS, in the experiment on IGROV1 ovarian, in the experiment on SK-MEL-5 melanoma, in the experiment with SK-MEL-2 melanoma, in the experiment on SF-539 CNS and in the experiment on MALME-3M melanoma was > 100 µM throughout. Besides, the TGI with KM12 colon was > 100 µM.

In the case of `Brc1nc2c3ccccc3ncn2c1Br`, the TGI in the experiment with SF-268 CNS is > 100 µM; in the experiment with LOX IMVI melanoma, 77.4 µM; in the experiment on IGROV1 ovarian, > 100 µM; in the experiment on SK-MEL-5 melanoma it was 39.3 µM; in the experiment on SK-MEL-2 melanoma it was 82.6 µM; with SF-539 CNS, > 100 µM. In addition, the TGI with MALME-3M melanoma is 33.2 µM; in the experiment on KM12 colon it was > 100 µM.

For the molecule `Cc1c2cc[n+](C)cc2c(C)c2c1[nH]c1ccc(OC(C)C)cc12`, the TGI in the experiment on SF-268 CNS was 1.88 µM and 2.82 µM; with LOX IMVI melanoma, 21.4 µM and 26.2 µM; in the experiment on IGROV1 ovarian, 22.3 µM and 29.5 µM; with SK-MEL-5 melanoma, 3.32 µM and 4.01 µM; in the experiment on SK-MEL-2 melanoma, 3.94 µM and 8.68 µM; in the experiment with SF-539 CNS, 9.82 µM and 12.5 µM. The TGI is 3.89 µM and 5.25 µM in the experiment on MALME-3M melanoma; 13.3 µM and 11.4 µM in the experiment on KM12 colon.

Consider `CCCCCCC(O)C/C=C/CCCCCC/C(C(=O)OC)=C(/O)C(=O)OCC` (stereo not given), for which the TGI with SF-268 CNS, in the experiment with LOX IMVI melanoma, in the experiment with IGROV1 ovarian, with SK-MEL-5 melanoma, in the experiment with SK-MEL-2 melanoma and in the experiment on SF-539 CNS was > 100 µM throughout. Also, the TGI in the experiment on MALME-3M melanoma and in the experiment with KM12 colon was > 100 µM in each case.

Consider `O=C(Nc1ccccc1)O/N=C1/CCCC/C1=C\c1ccccc1`, for which the TGI worked out at 32.8 µM in the experiment on SF-268 CNS; 34 µM in the experiment with LOX IMVI melanoma; 17.7 µM in the experiment with IGROV1 ovarian; 25.6 µM in the experiment on SK-MEL-5 melanoma; 29.2 µM in the experiment on SK-MEL-2 melanoma; 31.7 µM with SF-539 CNS.

As to `CC(=O)CC(=O)CCCC(=O)Nc1ccc(Cl)cc1Cl`, the TGI with SF-268 CNS, with LOX IMVI melanoma, with IGROV1 ovarian, with SK-MEL-2 melanoma, in the experiment with SF-539 CNS and in the experiment on MALME-3M melanoma was > 100 µM each time. For the same molecule, in the experiment with KM12 colon, the TGI is > 100 µM.

With `O=[N+]([O-])c1ccc(OCCNc2cccc3ccccc23)cc1`, the TGI in the experiment with SF-268 CNS, in the experiment with IGROV1 ovarian, in the experiment on SK-MEL-5 melanoma, in the experiment with SK-MEL-2 melanoma, with SF-539 CNS and in the experiment with MALME-3M melanoma was > 100 µM in each case. The TGI in the experiment on KM12 colon is > 100 µM.

As to `CC1(c2ccccc2)CC12C(=O)NC(=O)NC2=O` (stereo not given), the TGI in the experiment with SF-268 CNS, in the experiment on LOX IMVI melanoma, in the experiment with IGROV1 ovarian, in the experiment with SK-MEL-5 melanoma, with SK-MEL-2 melanoma and in the experiment on SF-539 CNS was > 100 µM in each case. Besides, the TGI in the experiment with MALME-3M melanoma and in the experiment on KM12 colon was > 100 µM each time.

`CC1=C2C(=CC(C)(CO)C2O)C(=O)C(C)(O)C12CC2` (stereo not given): the TGI in the experiment on SF-268 CNS came out at 0.0159 µM; in the experiment on LOX IMVI melanoma, 0.00992 µM; in the experiment on IGROV1 ovarian, 0.106 µM; in the experiment with SK-MEL-5 melanoma, 0.0036 µM; in the experiment on SK-MEL-2 melanoma, 0.00422 µM; with SF-539 CNS, 0.0152 µM. For the same molecule, the TGI in the experiment on MALME-3M melanoma worked out at 0.0105 µM; with KM12 colon it was 0.0219 µM.

For the molecule `NC(=O)c1csc(C2O[C@@H](COP(=O)(O)OP(=O)(O)OC[C@H]3OC(n4cnc5c(N)ncnc54)[C@H](O)[C@@H]3O)[C@H](O)[C@@H]2O)n1` (stereo not given in full), the TGI in the experiment on SF-268 CNS, with LOX IMVI melanoma, in the experiment on IGROV1 ovarian, in the experiment with SK-MEL-5 melanoma, in the experiment on SK-MEL-2 melanoma and in the experiment with SF-539 CNS was > 100 µM throughout. The TGI with MALME-3M melanoma and in the experiment with KM12 colon was > 100 µM each time.

On to `CC(C)(C)C(=O)Nc1ccccc1Br`, for which the TGI in the experiment with LOX IMVI melanoma, with IGROV1 ovarian, in the experiment on SK-MEL-5 melanoma, in the experiment on SK-MEL-2 melanoma, in the experiment on MALME-3M melanoma and in the experiment with KM12 colon was > 100 µM each time.

With `COC(=O)C(=O)C(C(=O)C(=O)Nc1ccc([N+](=O)[O-])cc1[N+](=O)[O-])c1nc2ccc([N+](=O)[O-])cc2[nH]c1=O` (stereo not given), the TGI in the experiment on SF-268 CNS, in the experiment with LOX IMVI melanoma, in the experiment on IGROV1 ovarian, with MALME-3M melanoma and in the experiment on KM12 colon was > 100 µM throughout.

Consider `O=C1C(c2ccc(Cl)cc2)=[N+]([O-])c2ccccc21`, for which the TGI worked out at 28.8 µM with SF-268 CNS; 27.7 µM with LOX IMVI melanoma; 33.9 µM in the experiment with IGROV1 ovarian; 26.6 µM in the experiment with SK-MEL-5 melanoma; 77.3 µM with SK-MEL-2 melanoma; 36 µM in the experiment on SF-539 CNS. For the same molecule, the TGI was 31.8 µM in the experiment with MALME-3M melanoma and 29.7 µM in the experiment on KM12 colon.

For the origin of these results see PubChem BioAssay (NCI).
